# How the values were obtained:
# IL-1α = test: mouse plasma IL-1α ELISA after endotoxin; assay type: in vivo, mice
# Description: FIG. 7 illustrates data from mouse plasma IL-1α ELISA measurements. Data were compiled from an average of duplicate ELISA measurements from a single experiment with each point representing pooled serum from three mice.
# For ELISA measurements of cytokine levels in plasma, blood was collected by retro-orbital or cardiac puncture of anesthetized mice, immediately centrifuged and the EDTA plasma stored at -70° C. Particulate free plasma was thawed on ice and cytokine levels determined utilizing commercial ELISA assays with normal mouse plasma used to generate standard curves. Murine tumor necrosis factor-α and interleukin-1α kits were purchased from Genzyme (Cambridge, Mass.) and Endogen (Boston, Mass.), respectively. Each data point was an average of two ELISA measurements made from EDTA serum pooled from three mice. The data summarized in Table 3 were compiled from two independent experiments; data from Table 4 and 5 were from single experiments of three mice per data point.
# In particular, peak levels observed at 6, 12 and 18 hours post endotoxin were decreased 1.2, 4.3 and 3.2-fold, respectively. Finally, IL-6 measurements were made in a similar manner (Table 6, FIG. 8).
# [1] = system: adhesion of activated U937 cells to HUVEC; test: adhesion of IL-1α activated U937 cells to non-stimulated HUVEC; assay type: cell-based, human; conditions: 250 μM pre-treatment of U937 cells
# Description: U937 cells were stimulated with various concentrations of IL-1-α with or without the addition of 250 µM CT1501R one hour prior to addition of IL-1-α. Twelve hours later, the U937 cells were stained with BCECF and allowed to adhere to HUVEC. FIG. 22 is the relative BCECF fluorescence (+/-SD) for each of the treatment groups.
# (§1) Murine peritoneal exudate cell macrophages (PEC) were isolated by perfusion of mouse peritoneum and plated into 96-well trays at 5×10^5 cells per well. Cells were stimulated with 5 μg/ml Salmonella abortus equi-derived endotoxin CLPS; Sigma Chemical Co., L-1887) or 50 ng/ml IL-1α (Genzyme; Cambridge, Mass.) with or without the addition of CT1501R added to the cultures one hour prior to addition of the stimulus. At various times thereafter, supernatants were removed and levels of either TNF-α or IL-1α were assayed using commercial 96-well microtiter immunoassay kits (Genzyme; TNF; Endogen, Boston, Mass.; IL-1α) according to manufacturer's specifications. […] After addition of […] Hanks Balanced Salt Solution (HBSS), the microtiter plate was then analyzed on a Millipore Cytofiuor fluorescent plate reader (excitation 488 nm; emission 525 nm). […]
# [2] = system: hair follicles of nu/nu mice; test: nude mouse hair studies, topical application; assay type: in vivo
# From the text: This example illustrates nude mouse hair studies involving topical application of CT1501R. Six to eight week old, female, nu/nu mice from Charles River Laboratories were housed at Biosupport Research Support Services (Seattle, Wash.) in autoclaved micro isolator units with hyperchlorinated autoclaved water, irradiated rodent chow and kept under a laminar flow hood. Caging was changed weekly, and water was changed twice weekly. The mice were acclimated for 5 days before beginning each study.
# The first topical formulation was prepared by adding CT1501R to a heated hydrophilic ointment (USP) at a 1% concentration, and allowed to solidify.
# Nude mice were painted twice daily for 16 days with the first topical formulation of CT1501R on the left flank and another compound in the same base on the right flank with sterile applicators. Mice were handled under the laminar flow hood with applicator wearing face mask and sterile gloves. After 16 days, one mouse was sacrificed by cervical dislocation and skin biopsies were taken of the treated areas of the shoulder/flank and from the non-treated area of the dorsal pelvis (rump). Specimens were placed in 10% buffered formalin solution. Biopsies were sent to a veterinary dermopathologist for histopathology. Six weeks following treatment, a second mouse was euthanatized and biopsied the same as the first. Samples were sent for histopathology.
# In a second experiment, topical application of CT1501R was performed along with a commercial topical minoxidil preparation (Rogaine®, Upjohn) that is approved for a hair growth indication. Five to six week old, female, nu/nu mice from Bantin and Kingman Universal were housed at Biosupport Research Support Services (Seattle, Wash.) in autoclaved micro isolator units with hyper chlorinated autoclaved water, irradiated rodent chow and kept under a laminar flow hood. Caging was changed weekly, and water was changed twice weekly. Mice were acclimated for 7 days before beginning study, […]
# [3] = system: TNF-α release from IL-1α activated PEC; test: TNF-α release from IL-1α activated PEC, ELISA; assay type: cell-based; conditions: Mus musculus, 50 ng/ml IL-1α, at the tested time points (24, 48, 72 hrs), read-out: inhibition of induced levels of TNF-α
# Description: Cells were isolated and treated with or without CT1501R (250 μM) 1 hour prior to IL-1-α activation. The supernatants were collected at 24, 48 or 72 hrs following activation and assayed for TNF-α by ELISA (+/-SD).
# as §1, with “specifications. For the adhesion studies, early passage human umbilical vein endothelial cells (HUVEC) were obtained from commercial suppliers (Clonetics, San Diego, Calif. or Cell Systems, Seattle, Wash.) and cultured in defined, Hepes buffered, serum free medium (Cell Systems, cat 301-180) supplemented with acidic FGF (Cell Systems cat 401-111).” for “specifications.”
smiles,measurement,setting,value
"C[C@@H](O)CCCCn1c(=O)c2c(ncn2C)n(C)c1=O [CT1501R, (R)-1-(5-hydroxyhexyl)-3,7-dimethylxanthine]",decrease of peak plasma IL-1α vs endotoxin only,IL-1α; 6 hours post endotoxin,1.2 fold
same,decrease of peak plasma IL-1α vs endotoxin only,IL-1α; 12 hours post endotoxin,4.3 fold
same,decrease of peak plasma IL-1α vs endotoxin only,IL-1α; 18 hours post endotoxin,3.2 fold
same,IL-1α mediated increase in adhesion of U937 cells to HUVEC,[1],effectively blocked the IL-1α mediated increase in adhesion to HUVEC to near background levels
same,"hair follicles, histopathology of treated vs non treated skin sections","[2]; first experiment, 1% in hydrophilic ointment, twice daily for 16 days",significantly more normal appearing hair follicles than the non treated sections
same,"hair follicles, subjective histopathological examination","[2]; second experiment, 60% ETOH, 10% water, 30% PEG base, twice daily, 34 days",greatest concentration of hair folicles
same,inhibition at 250 µM,[3],50 to 70%

# — patent US5621102A, “Process for preparing enantiomerically pure xanthine derivatives” (Cell Therapeutics, Inc., priority 1995, dated 1997)
